# Source: PMC7665585, “Antidepressive effect of an inward rectifier K^+ channel blocker peptide, tertiapin-RQ” (PLoS ONE, 2020)
# Like-named read-outs stand apart in the source and are kept apart here. Bridge positions count the residues as written; N and C are the ends. Peptide text beside a SMILES is read from it.
# Columns and labels:
# [1] = target: T1, rat ROMK (Rattus norvegicus, UniProt P35560); experiment: Whole-cell patch-clamp of ROMK currents in 208–4 cells; assay type: cell-based; settings: for inhibition at 1 µM: blockade at 1 μM estimated from fitted Hill curve (four parameters), n = 3–6, read-out: Activity (ROMK channel blocking activity, percentage of blockade at 1 μM); for IC50: 25°C
# T1 construct: expressed in transfected cells; host or cells: 293T cell line 208-4 (lentiviral transduction, GFP coexpressed)
# T1 sequence (P35560 1-391): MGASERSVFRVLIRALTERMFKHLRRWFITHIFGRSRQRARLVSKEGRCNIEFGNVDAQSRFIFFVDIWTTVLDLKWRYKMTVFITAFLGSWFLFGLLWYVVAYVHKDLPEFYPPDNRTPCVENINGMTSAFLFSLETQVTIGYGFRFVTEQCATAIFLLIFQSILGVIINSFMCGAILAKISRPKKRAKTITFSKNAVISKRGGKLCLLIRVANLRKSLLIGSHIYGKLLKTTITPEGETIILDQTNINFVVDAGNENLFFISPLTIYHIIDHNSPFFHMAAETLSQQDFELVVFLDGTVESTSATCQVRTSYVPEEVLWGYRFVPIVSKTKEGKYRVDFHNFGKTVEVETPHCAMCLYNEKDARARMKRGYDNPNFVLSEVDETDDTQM
# How it was run: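 ROMK stably expressed in 208–4 cells; GIRK transiently in 293T, recorded 24 h post-transfection; 25°C, Tyrode (high-K+ 50 mM for GIRK), K-aspartate/KCl pipette with 3 mM MgATP. Steps −150 to 10 mV from −70 mV; currents 60 s after peptide; conductance from I-V slope −140 to −100 mV, Ba2+-resistant current subtracted, normalized to 0 μM TPN.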
# [2] = tested on: Male ICR mice; experiment: Wheel running test; assay type: in vivo, mouse; settings: i.c.v.; 4 min, immediately after EPM
# Experimental: We performed mouse behavioral experiments in accordance with our previous study. Male ICR mice (n = 199 in total) aged 5 weeks old were purchased from Shimizu Laboratory Supplies (Kyoto, Japan) and maintained in an animal facility for 7–12 days. They had free access to food and water and were kept in a 12-h light/dark cycle (08:00–20:00). Experiments were carried out between 11:00 and 17:00 in a quiet and air-conditioned experimental room, to which mice were habituated for 30–60 min before each experiment. Animal experiments were performed in accordance with the guidelines of the Physiological Society of Japan and were approved by the Committee for Animal Experiments of Kurashiki University of Science and the Arts. Peptides were dissolved in phosphate-buffered saline (PBS). Peptides were injected intracerebroventricularly (i.c.v.) 30 min before behavioral tests (typically 5 μL/mouse), according to a previous study. The mouse was placed into an anesthetizing jar, to which isoflurane (0.2 mL) was added immediately before. […]
# Spontaneous motor activity was measured with a multifunctional activity wheel (MK-770, Muromachi Kikai, Tokyo, Japan). […] The number of rotations was counted automatically.
structure (smiles),measurement,setting,value
"CC[C@H](C)[C@@H]1NC(=O)[C@H](CCCNC(=N)N)NC(=O)[C@H](CC(N)=O)NC(=O)[C@@H]2CSSC[C@@H](C(=O)NCC(=O)N[C@@H](CCCCN)C(=O)N[C@@H](CCCCN)C(N)=O)NC(=O)[C@H](CCCCN)NC(=O)[C@H](CCCCN)NC(=O)[C@H](Cc3c[nH]c4ccccc34)NC(=O)[C@H](CSSC[C@H](NC(=O)[C@H](CC(C)C)NC(=O)[C@H](C)N)C(=O)N[C@@H](CC(N)=O)C(=O)N2)NC(=O)[C@H](CCC(N)=O)NC(=O)[C@H](CC(C)C)NC(=O)[C@@H]2CCCN2C(=O)[C@H]([C@@H](C)CC)NC(=O)[C@H]([C@@H](C)CC)NC1=O [Peptide 3, TPN-LQ] (H-ALCNCNRIIIPLQCWKKCGKK-NH2; disulfide 3-14, 5-18; N-terminus and C-terminus assumed)",inhibition at 1 µM,[1]; whole-cell conductance,60 to 80%
same,spontaneous rotations in activity wheel,[2],decreased
"CC[C@H](C)[C@@H]1NC(=O)[C@H](CCCNC(=N)N)NC(=O)[C@H](CCCNC(=N)N)NC(=O)[C@H](CC(N)=O)NC(=O)[C@@H]2CSSC[C@@H](C(=O)NCC(=O)N[C@@H](CCCCN)C(=O)N[C@@H](CCCCN)C(N)=O)NC(=O)[C@H](CCCCN)NC(=O)[C@H](CCCCN)NC(=O)[C@H](Cc3c[nH]c4ccccc34)NC(=O)[C@H](CSSC[C@H](NC(=O)[C@H](CC(C)C)NC(=O)[C@H](C)N)C(=O)N[C@@H](CC(N)=O)C(=O)N2)NC(=O)[C@H](CCC(N)=O)NC(=O)[C@H](Cc2c[nH]cn2)NC(=O)[C@@H]2CCCN2C(=O)[C@H]([C@@H](C)CC)NC1=O [Peptide 2, TPN-RQ] (H-ALCNCNRRIIPHQCWKKCGKK-NH2; disulfide 3-14, 5-18)",inhibition at 1 µM,[1]; whole-cell conductance,> 80%
same,IC50,"[1]; peptide pre-treated with protein disulfide isomerase, 30 min, n = 4 (Fig 2F), read-out: IC50, ROMK current, PDI-treated peptide",240 nM
same,IC50,"[1]; whole-cell conductance, 60 sec after application, n = 3 (Fig 2E), read-out: IC50, ROMK current",170 nM
same,spontaneous rotations in activity wheel,[2],decreased spontaneous motor activity
